From PubChem BioAssay (NCI)
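Growth conditions: 96-well plates. Treatment: test compound, 48 hours, 5 concentrations. Analysis: linear interpolation between bracketing concentrations; unreached endpoints set to highest concentration. Definition used: TGI = concentration required for complete inhibition of growth.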

What was measured:
Assay in all cases: growth of human tumour cells (NCI), 48 h
SNB-19 CNS = test system: SNB-19 CNS
SR leukemia = test system: SR leukemia
SK-OV-3 ovarian = test system: SK-OV-3 ovarian
786-0 renal = test system: 786-0 renal
OVCAR-5 ovarian = test system: OVCAR-5 ovarian
NCI-H226 lung = test system: NCI-H226 lung
UACC-257 melanoma = test system: UACC-257 melanoma
IGROV1 ovarian = test system: IGROV1 ovarian
HOP-92 NSCLC = test system: HOP-92 NSCLC
OVCAR-3 ovarian = test system: OVCAR-3 ovarian
MALME-3M melanoma = test system: MALME-3M melanoma
A549 NSCLC = test system: A549 NSCLC
HCT-15 colon = test system: HCT-15 colon
A498 renal = test system: A498 renal
TK-10 renal = test system: TK-10 renal
ACHN renal = test system: ACHN renal
MDA-N = test system: MDA-N
NCI/ADR-RES ovarian = test system: NCI/ADR-RES ovarian
T-47D breast = test system: T-47D breast
BT-549 breast = test system: BT-549 breast

Row | Compound | TGI (SNB-19 CNS) | TGI (SR leukemia) | TGI (SK-OV-3 ovarian) | TGI (786-0 renal) | TGI (OVCAR-5 ovarian) | TGI (NCI-H226 lung) | TGI (UACC-257 melanoma) | TGI (IGROV1 ovarian) | TGI (HOP-92 NSCLC) | TGI (OVCAR-3 ovarian) | TGI (MALME-3M melanoma) | TGI (A549 NSCLC) | TGI (HCT-15 colon) | TGI (A498 renal) | TGI (TK-10 renal) | TGI (ACHN renal) | TGI (MDA-N) | TGI (NCI/ADR-RES ovarian) | TGI (T-47D breast) | TGI (BT-549 breast)
1 | C/C(CC(=O)NC1=CC=C(NC(=O)C/C(C)=N\Nc2ccccc2)CC1)=N/Nc1ccccc1 | > 100 µM | > 100 µM | > 100 µM | > 100 µM | > 100 µM | > 100 µM | > 100 µM | > 100 µM | > 100 µM | > 100 µM | > 100 µM | > 100 µM | > 100 µM | > 100 µM | > 100 µM | > 100 µM | – | – | – | –
2 | CC(C)(CC#N)c1cc(CC(C)(C)c2cc(CC(C)(C)c3cc(C(C)(C)C4(C)OCCO4)no3)no2)no1 | 77.7 µM | – | > 100 µM | 43.1 µM | > 100 µM | > 100 µM | > 100 µM | > 100 µM | – | > 100 µM | > 100 µM | > 100 µM | > 100 µM | > 100 µM | > 100 µM | > 100 µM | > 100 µM | > 100 µM | > 100 µM | > 100 µM
3 | CCOC(=O)/C(C[C@H]1OC(C)(C)O[C@@H]1[C@H]1COC(C)(C)O1)=N/O | > 100 µM | – | > 100 µM | > 100 µM | > 100 µM | > 100 µM | > 100 µM | > 100 µM | > 100 µM | > 100 µM | > 100 µM | > 100 µM | > 100 µM | > 100 µM | > 100 µM | > 100 µM | > 100 µM | > 100 µM | – | > 100 µM
4 | CSc1nc2c(c(O)c(C)c(=O)n2C2OCC(OC(C)=O)C(OC(C)=O)C2OC(C)=O)c(=O)n1C (stereo unspecified) | > 100 µM | > 100 µM | > 100 µM | > 100 µM | > 100 µM | > 100 µM | > 100 µM | > 100 µM | > 100 µM | > 100 µM | > 100 µM | > 100 µM | > 100 µM | > 100 µM | > 100 µM | > 100 µM | – | – | – | –
5 | O=C(Cn1c2ccc(Br)cc2c2nc3ccccc3nc21)N/N=C/c1ccccc1 | > 100 µM | > 100 µM | > 100 µM | 94.8 µM | > 100 µM | > 100 µM | > 100 µM | > 100 µM | – | > 100 µM | – | > 100 µM | – | > 100 µM | > 100 µM | > 100 µM | – | > 100 µM | > 100 µM | > 100 µM
6 | CC(=O)Oc1cc(C)c(OC(C)=O)c2c1[C@H]1CC[C@]3(C)[C@@H](OC(C)=O)CC[C@H]3[C@@H]1CC2 | 32.2 µM | > 100 µM | – | 43.1 µM | 36 µM | – | 30 µM | 32.9 µM | 23.7 µM | 32.1 µM | 36 µM | 34.4 µM | 31.3 µM | 32.8 µM | 31.6 µM | 27.7 µM | 28.2 µM | 41.2 µM | – | 30.7 µM
7 | Cn1c(=O)cc(NCCc2ccccc2)[nH]c1=O | > 100 µM | – | > 100 µM | > 100 µM | > 100 µM | > 100 µM | > 100 µM | > 100 µM | > 100 µM | 36.6 µM | > 100 µM | > 100 µM | > 100 µM | > 100 µM | > 100 µM | > 100 µM | 20.5 µM | 98 µM | > 100 µM | > 100 µM
8 | COC(=O)c1nc(-c2nc(CCNC(=O)OC(C)(C)C)sc2Cl)sc1Cl | > 100 µM | > 100 µM | > 100 µM | > 100 µM | > 100 µM | > 100 µM | > 100 µM | > 100 µM | 67.2 µM | > 100 µM | > 100 µM | > 100 µM | > 100 µM | > 100 µM | > 100 µM | > 100 µM | > 100 µM | > 100 µM | – | > 100 µM
9 | CCO/C(O)=C(/C(=N)N1CCCC1)C(=O)Nc1ccc(F)cc1 | > 100 µM | – | > 100 µM | > 100 µM | > 100 µM | > 100 µM | > 100 µM | > 100 µM | – | > 100 µM | > 100 µM | > 100 µM | > 100 µM | > 100 µM | > 100 µM | > 100 µM | > 100 µM | > 100 µM | > 100 µM | > 100 µM
10 | CC(=O)OC1CC[C@@]2(C)C(C1)CC(OC(C)=O)[C@@H]1C2CC(OC(C)=O)[C@]2(C)C(C(C)CC=C(c3ccc(Cl)cc3)c3ccc(Cl)cc3)CCC12 (stereo partly specified) | > 100 µM | > 100 µM | > 100 µM | > 100 µM | > 100 µM | – | > 100 µM | > 100 µM | – | – | – | > 100 µM | > 100 µM | – | > 100 µM | > 100 µM | > 100 µM | > 100 µM | > 100 µM | –
11 | COc1ccc(CCNC(=O)CCc2ccccc2CO)cc1OC | > 100 µM | > 100 µM | > 100 µM | > 100 µM | > 100 µM | > 100 µM | > 100 µM | > 100 µM | > 100 µM | > 100 µM | – | > 100 µM | > 100 µM | > 100 µM | > 100 µM | > 100 µM | – | > 100 µM | > 100 µM | > 100 µM
12 | COC(=O)c1ccccc1C1CN=NC12Cc1cc(C)c(C)cc1C2=O (stereo unspecified) | > 100 µM | – | > 100 µM | > 100 µM | > 100 µM | > 100 µM | 44.9 µM | > 100 µM | 78.9 µM | > 100 µM | > 100 µM | > 100 µM | > 100 µM | > 100 µM | > 100 µM | > 100 µM | > 100 µM | > 100 µM | > 100 µM | > 100 µM
13 | O=C1/C(=C/c2ccccc2)CCc2ccccc21 | 22.7 µM | 38.9 µM | 67.5 µM | 34.7 µM | 33.4 µM | 35 µM | 31.4 µM | 54.3 µM | – | 30.2 µM | 31.9 µM | 57.4 µM | 86.9 µM | 34.5 µM | 29.2 µM | 32.4 µM | 32.2 µM | 83.2 µM | – | 29.7 µM
